Source: patent publication US20070232575A1, “Treatment of Pulmonary Artery Hypertension with Dhea, Dheas, Dhea Analogs, or Dhea Derivatives” (priority 2004, published 2007)
Where “and” joins values, the source holds several entries; their conditions need not be identical. Equal entries are not always repeated. Entries after “also recorded” stand apart in the source; their conditions may differ.

What was measured:
[1] = test system: chronic hypoxic-pulmonary artery hypertension (CH-PAH); experiment: Mean pulmonary arterial pressure (PAP) in chronic hypoxic (CH-PAH) rat model; format: in vivo; details: for reversal of PA hypertension: in contrast to testosterone, estradiol, pregnenolone, protocol not restated; for effect on PAP, i.v. administration: 3 mg/kg, same intravascular protocol as for DHEA, CH-DHEA rats (so in the source)
Description: To study the mechanisms of PAH and its possible treatments, an animal model was utilized. The placement of rats in a hypobaric chamber for 7 to 21 days induced chronic hypoxia, resulting in CH-PAH, a useful model system for studying mammalian PAH.
The rat model experiments were performed as follows. Adult male Wistar rats (220-240 g) were randomized into five groups. […] Intravascular administration was performed via the catheter inserted in the right jugular vein.

PASMCs from CH rats = experiment: In vitro DHEA treatment of PASMCs, resting [Ca2+]i, with K channel blockers and pathway inhibitors; format: cell-based, rat; details: for effect on the DHEA-induced [Ca2+]i decrease: DHEA plus blocker/inhibitor: IbTx, agitoxin-2, ODQ 10 μM, genistein 1 μM, 476485 1 μM, DTT
Description: The heart and lungs were removed and intrapulmonary arteries (IPAs) (150-300 μm of internal diameter) were then dissected. The adventitial and intimal layers were removed. For contraction experiments, rings (3 mm in length) were prepared.
As mentioned earlier, Ca^2+ is thought to play an important role in the response to chronic hypoxia. To measure the effects of DHEA on [Ca^2+]i of individual PASMCs, a [Ca^2+]i-sensitive fluorophore, indo-1 (Calbiochem, San Diego, Calif.), was employed. […] The recording system included a Nikon Diaphot inverted microscope fitted with epifluorescence.
To further examine how DHEA functions to decrease the [Ca^2+]i in PASMCs, the following experiment was performed.

C[C@]12CC[C@H](O)C[C@@H]1CC[C@@H]1[C@@H]2CC[C@]2(C)C(=O)CC[C@@H]12 [3β-hydroxy-5α-androstan-17-one]
reversal of PA hypertension [1]: did reverse PA hypertension

C[C@H]1CC[C@@]2(C)C(=CC[C@@H]3[C@@H]2CC[C@]2(C)C(=O)CC[C@@H]32)C1 [3βmethyl-5-androsten-17-one]
reversal of PA hypertension [1]: did reverse PA hypertension

Nc1ccncc1 [4-AP, 4-amino-pyridine]
block of the DHEA-induced [Ca2+]i decrease (PASMCs from CH rats; combined IbTx 100 nM and 4-AP 1 mM): 100% | effect on the DHEA effect on resting [Ca2+]i (PASMCs from CH rats; combined presence of 4-AP and IbTx): almost totally abolished

C[C@]12CC[C@H]3[C@@H](CC=C4C[C@@H](O)CC[C@@]43C)[C@@H]1CC[C@@H]2O [5-androsten-3β,17β-diol]
reversal of PA hypertension [1]: did reverse PA hypertension

O[C@@H](CS)[C@@H](O)CS [DTT]
effect on the DHEA-induced [Ca2+]i decrease (PASMCs from CH rats): totally inhibited; also recorded: suppressed; also recorded: inhibits the effect of DHEA | elevation of the resting [Ca2+]i (PASMCs from CH rats; DTT with DHEA, PASMCs): 23 nM

O=c1onc2cnc3ccccc3n12 [ODQ, 1H-[1,2,4]oxadiazolol[4,3,-a]quinoxalin-1-one]
effect on the DHEA-induced [Ca2+]i decrease (PASMCs from CH rats): did not alter; also recorded: no effect

O=c1c(-c2ccc(O)cc2)coc2cc(O)cc(O)c12 [genistein, Genistein]
effect on the DHEA-induced [Ca2+]i decrease (PASMCs from CH rats): did not alter; also recorded: no effect

CC(=O)[C@H]1CC[C@H]2[C@@H]3CC=C4C[C@@H](O)CC[C@]4(C)[C@H]3CC[C@]12C [pregnenolone]
effect on PAP, i.v. administration [1]: did not reveal any effect

C[C@]12CC[C@H]3[C@@H](CCC4=CC(=O)CC[C@@]43C)[C@@H]1CC[C@@H]2O [testosterone]
effect on PAP, i.v. administration [1]: did not reveal any effect

agitoxin-2
effect on the DHEA-induced [Ca2+]i decrease (PASMCs from CH rats): no effect

iberiotoxin (QFTDVDCSVSKECWSVCKDLFGVDRGKCMGKKCRCYQ; UniProt P24663 1-37, looked up) [IbTx]
inhibition of the DHEA-induced change of resting [Ca2+]i (PASMCs from CH rats; DHEA 100 μM and IbTx 100 nM, 10 min, PASMCs from CH rats): 62% and 65% | effect on the DHEA-induced [Ca2+]i decrease (PASMCs from CH rats): blocked
